Each block holds one substance with its values, some of them ahead of it.
Tests used:
Experiment in all cases: Histone peptide microarray
Assay type in all cases: binding, human
KDM5A (3) = tested on: KDM5A (3)
Method in brief: (§1)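 Using an optimized microarray protocol, purified GST-tagged PHD fingers were incubated at 0.5 μM on 293 histone peptides with single or multiple modifications, and array signal was recorded as the average of 4 replicates.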

PHRF1 (RP) = tested on: PHRF1 (RP)
Method in brief: as §1

PHF21A = tested on: PHF21A
Method in brief: as §1

PHF2 = tested on: PHF2
Method in brief: as §1

PHF8 = tested on: PHF8
Method in brief: as §1

ING4 = tested on: ING4
Method in brief: as §1

DPF2 (PPC2W2) = tested on: DPF2 (PPC2W2)
Method in brief: as §1

CHD5 (PCC) = tested on: CHD5 (PCC)
Method in brief: as §1

KDM7A = tested on: KDM7A
Method in brief: as §1

ING5 = tested on: ING5
Method in brief: as §1

MLL5 = tested on: MLL5
Method in brief: as §1

KDM5A (1) = tested on: KDM5A (1)
Method in brief: as §1

ING1 = tested on: ING1
Method in brief: as §1

BAZ2B = tested on: BAZ2B
Method in brief: as §1

PHF13 = tested on: PHF13
Method in brief: as §1

TRIM66 (PB) = tested on: TRIM66 (PB)
Method in brief: as §1

KDM5B (1) = tested on: KDM5B (1)
Method in brief: as §1

CHD5 (PPCC) = tested on: CHD5 (PPCC)
Method in brief: as §1

BPTF (PB) = tested on: BPTF (PB)
Method in brief: as §1

ING2 = tested on: ING2
Method in brief: as §1

KDM4C (TTP) = tested on: KDM4C (TTP)
Method in brief: as §1

MORC3 (CW) = tested on: MORC3 (CW)
Method in brief: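 GST-tagged PHD readers, 0.5 μM, probed on a microarray of 293 synthetic histone peptides carrying single or combinatorial PTMs (optimized Petell protocol). Signals are averaged over 4 replicates and expressed as relative binding.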

CHD4 (PPCC) = tested on: CHD4 (PPCC)
Method in brief: as §1

RAG2 = tested on: RAG2
Method in brief: as §1

AIRE (PP) = tested on: AIRE (PP)
Method in brief: as §1

SP140L = tested on: SP140L
Method in brief: as §1

ING3 = tested on: ING3
Method in brief: as §1

TAF3 = tested on: TAF3
Method in brief: as §1

PHF23 = tested on: PHF23
Method in brief: as §1

KDM5B (3) = tested on: KDM5B (3)
Method in brief: as §1

DIDO1 = tested on: DIDO1
Method in brief: as §1

Substance: H3K14ac + K18ac: H3 1-20
Array Heatmap signal (histone peptide microarray) (KDM5A (3); GST-tagged KDM5A (3), sheet Array Heatmap, each array performed twice, total n = 4): 0.6717
Array Heatmap signal (histone peptide microarray) (PHRF1 (RP); GST-tagged PHRF1 (RP), sheet Array Heatmap, each array performed twice, total n = 4): 0.8706
Array Heatmap signal (histone peptide microarray) (PHF21A; GST-tagged PHF21A, sheet Array Heatmap, each array performed twice, total n = 4): 0.5152
Array Heatmap signal (histone peptide microarray) (PHF2; GST-tagged PHF2, sheet Array Heatmap, each array performed twice, total n = 4): 0.4774
Array Heatmap signal (histone peptide microarray) (PHF8; GST-tagged PHF8, sheet Array Heatmap, each array performed twice, total n = 4): 0.3925
Array Heatmap signal (histone peptide microarray) (ING4; GST-tagged ING4, sheet Array Heatmap, each array performed twice, total n = 4): 0.4542
Array Heatmap signal (histone peptide microarray) (DPF2 (PPC2W2); GST-tagged DPF2 (PPC2W2 = Dual PHD + C2W2-type Zn-finger), sheet Array Heatmap, each array performed twice, total n = 4): 0.9185
Array Heatmap signal (histone peptide microarray) (CHD5 (PCC); GST-tagged CHD5 (PCC = PHD + Dual Chromodomain), sheet Array Heatmap, each array performed twice, total n = 4): 0.8723
Array Heatmap signal (histone peptide microarray) (KDM7A; GST-tagged KDM7A, sheet Array Heatmap, each array performed twice, total n = 4): 0.4239
Array Heatmap signal (histone peptide microarray) (ING5; GST-tagged ING5, sheet Array Heatmap, each array performed twice, total n = 4): 0.355
Array Heatmap signal (histone peptide microarray) (MLL5; GST-tagged MLL5, sheet Array Heatmap, each array performed twice, total n = 4): 0.5196
Array Heatmap signal (histone peptide microarray) (KDM5A (1); GST-tagged KDM5A (1), sheet Array Heatmap, each array performed twice, total n = 4): 0.555
Array Heatmap signal (histone peptide microarray) (ING1; GST-tagged ING1, sheet Array Heatmap, each array performed twice, total n = 4): 0.5141
Array Heatmap signal (histone peptide microarray) (BAZ2B; GST-tagged BAZ2B, sheet Array Heatmap, each array performed twice, total n = 4): 0.8123
Array Heatmap signal (histone peptide microarray) (PHF13; GST-tagged PHF13, sheet Array Heatmap, each array performed twice, total n = 4): 0.5985
Array Heatmap signal (histone peptide microarray) (TRIM66 (PB); GST-tagged TRIM66 (PB = PHD + Bromodomain), sheet Array Heatmap, each array performed twice, total n = 4): 0.934
Array Heatmap signal (histone peptide microarray) (KDM5B (1); GST-tagged KDM5B (1), sheet Array Heatmap, each array performed twice, total n = 4): 0.7675
Array Heatmap signal (histone peptide microarray) (CHD5 (PPCC); GST-tagged CHD5 (PPCC = Dual PHD + Dual Chromodomain), sheet Array Heatmap, each array performed twice, total n = 4): 0.5768
Array Heatmap signal (histone peptide microarray) (BPTF (PB); GST-tagged BPTF (PB = PHD + Bromodomain), sheet Array Heatmap, each array performed twice, total n = 4): 0.357
Array Heatmap signal (histone peptide microarray) (ING2; GST-tagged ING2, sheet Array Heatmap, each array performed twice, total n = 4): 0.6014
Array Heatmap signal (histone peptide microarray) (KDM4C (TTP); GST-tagged KDM4C (TTP = Tandem Tudor domain + PHD), sheet Array Heatmap, each array performed twice, total n = 4): 0.5291
Array Heatmap signal (histone peptide microarray) (MORC3 (CW); GST-tagged MORC3 (CW = CW-type Zn-finger), sheet Array Heatmap, each array performed twice, total n = 4): 0.487
Array Heatmap signal (histone peptide microarray) (CHD4 (PPCC); GST-tagged CHD4 (PPCC = Dual PHD + Dual Chromodomain), sheet Array Heatmap, each array performed twice, total n = 4): 0.581
Array Heatmap signal (histone peptide microarray) (RAG2; GST-tagged RAG2, sheet Array Heatmap, each array performed twice, total n = 4): 0.2663
Array Heatmap signal (histone peptide microarray) (AIRE (PP); GST-tagged AIRE (PP), sheet Array Heatmap, each array performed twice, total n = 4): 1
Array Heatmap signal (histone peptide microarray) (SP140L; GST-tagged SP140L, sheet Array Heatmap, each array performed twice, total n = 4): 0.4262
Array Heatmap signal (histone peptide microarray) (ING3; GST-tagged ING3, sheet Array Heatmap, each array performed twice, total n = 4): 0.4502
Array Heatmap signal (histone peptide microarray) (TAF3; GST-tagged TAF3, sheet Array Heatmap, each array performed twice, total n = 4): 0.337
Array Heatmap signal (histone peptide microarray) (PHF23; GST-tagged PHF23, sheet Array Heatmap, each array performed twice, total n = 4): 0.5075
Array Heatmap signal (histone peptide microarray) (KDM5B (3); GST-tagged KDM5B (3), sheet Array Heatmap, each array performed twice, total n = 4): 0.6502
Array Heatmap signal (histone peptide microarray) (DIDO1; GST-tagged DIDO1, sheet Array Heatmap, each array performed twice, total n = 4): 0.658

Array Heatmap value (peptide array binding signal) (KDM5A (3); KDM5A (3), GST-tagged, arrays performed twice, n of 4): 0.4688
Array Heatmap value (peptide array binding signal) (PHRF1 (RP); PHRF1 (RP), GST-tagged, arrays performed twice, n of 4): 0.4299
Array Heatmap value (peptide array binding signal) (PHF21A; PHF21A, GST-tagged, arrays performed twice, n of 4): 0.4543
Array Heatmap value (peptide array binding signal) (PHF2; PHF2, GST-tagged, arrays performed twice, n of 4): 0.5405
Array Heatmap value (peptide array binding signal) (PHF8; PHF8, GST-tagged, arrays performed twice, n of 4): 0.3633
Array Heatmap value (peptide array binding signal) (ING4; ING4, GST-tagged, arrays performed twice, n of 4): 0.4701
Array Heatmap value (peptide array binding signal) (DPF2 (PPC2W2); DPF2 (PPC2W2), GST-tagged, arrays performed twice, n of 4): 0.6298
Array Heatmap value (peptide array binding signal) (CHD5 (PCC); CHD5 (PCC), GST-tagged, arrays performed twice, n of 4): 0.7486
Array Heatmap value (peptide array binding signal) (KDM7A; KDM7A, GST-tagged, arrays performed twice, n of 4): 0.3485
Array Heatmap value (peptide array binding signal) (ING5; ING5, GST-tagged, arrays performed twice, n of 4): 0.3689
Array Heatmap value (peptide array binding signal) (MLL5; MLL5, GST-tagged, arrays performed twice, n of 4): 0.5622
Array Heatmap value (peptide array binding signal) (KDM5A (1); KDM5A (1), GST-tagged, arrays performed twice, n of 4): 0.4698
Array Heatmap value (peptide array binding signal) (ING1; ING1, GST-tagged, arrays performed twice, n of 4): 0.5436
Array Heatmap value (peptide array binding signal) (BAZ2B; BAZ2B, GST-tagged, arrays performed twice, n of 4): 0.4646
Array Heatmap value (peptide array binding signal) (PHF13; PHF13, GST-tagged, arrays performed twice, n of 4): 0.6322
Array Heatmap value (peptide array binding signal) (TRIM66 (PB); TRIM66 (PB), GST-tagged, arrays performed twice, n of 4): 0.5817
Array Heatmap value (peptide array binding signal) (KDM5B (1); KDM5B (1), GST-tagged, arrays performed twice, n of 4): 0.6467
Array Heatmap value (peptide array binding signal) (CHD5 (PPCC); CHD5 (PPCC), GST-tagged, arrays performed twice, n of 4): 0.5556
Array Heatmap value (peptide array binding signal) (BPTF (PB); BPTF (PB), GST-tagged, arrays performed twice, n of 4): 0.3564
Array Heatmap value (peptide array binding signal) (ING2; ING2, GST-tagged, arrays performed twice, n of 4): 0.637
Array Heatmap value (peptide array binding signal) (KDM4C (TTP); KDM4C (TTP), GST-tagged, arrays performed twice, n of 4): 0.482
Array Heatmap value (peptide array binding signal) (MORC3 (CW); MORC3 (CW), GST-tagged, arrays performed twice, n of 4): 0.3825
Array Heatmap value (peptide array binding signal) (CHD4 (PPCC); CHD4 (PPCC), GST-tagged, arrays performed twice, n of 4): 0.5705
Array Heatmap value (peptide array binding signal) (RAG2; RAG2, GST-tagged, arrays performed twice, n of 4): 0.2578
Array Heatmap value (peptide array binding signal) (AIRE (PP); AIRE (PP), GST-tagged, arrays performed twice, n of 4): 0.4141
Array Heatmap value (peptide array binding signal) (SP140L; SP140L, GST-tagged, arrays performed twice, n of 4): 0.3575
Array Heatmap value (peptide array binding signal) (ING3; ING3, GST-tagged, arrays performed twice, n of 4): 0.4835
Array Heatmap value (peptide array binding signal) (TAF3; TAF3, GST-tagged, arrays performed twice, n of 4): 0.2772
Array Heatmap value (peptide array binding signal) (PHF23; PHF23, GST-tagged, arrays performed twice, n of 4): 0.5508
Array Heatmap value (peptide array binding signal) (KDM5B (3); KDM5B (3), GST-tagged, arrays performed twice, n of 4): 0.4626
Array Heatmap value (peptide array binding signal) (DIDO1; DIDO1, GST-tagged, arrays performed twice, n of 4): 0.6879
Substance: H3K36me2 (21-44): H3 21-44

Reference: article PMC6979384, “Characterization of the plant homeodomain (PHD) reader family for their histone tail interactions” (Epigenetics & Chromatin, 2020)
